Measurements published in patent US11028103B2, “Derivatized 3-styryl-cephalosporins” (priority 2013, dated 2021).
pIC50: −log10 of the molar value.

Tests used:
Format in all cases: biochemical
[1] = target: T1, VIM-2 (Escherichia coli, UniProt Q5U7L7); test: 10 minute IC50 β-lactamase inhibition assay (Chromacef hydrolysis); conditions: 10 min preincubation, 300 μM Chromacef, pH 7.0, 30° C.
T1 construct: made in house
Text: (§1) A chromogenic cephalosporin, Chromacef, is synthesized and isolated as described by Yu, et al. (Yu S; Vosbeek, A; Corbella, K; Severson, J; Schesser, J; and Sutton, L D. A chromogenic cephalosporin for fJ-lactamase inhibitor screening assays (2012) Analytical Biochemistry, 438, 96-98) and used to monitor β-lactamase activity. β-Lactamase enzymes are isolated from bacteria by methods known to those knowledgeable in the art. A typical assay monitors the hydrolysis of Chromacef via the formation of a species which absorbs maximally at 442 nm (molar extinction coefficient=14,500). Absorption is monitored as a function of time in buffer (either 50 mM, pH 7.0 sodium phosphate or 100 mM, pH 7.0 Trisma buffer supplemented with 100 μM ZnCl2), 100-300 μM Chromacef and 1-3 volume percent DMSO cosolvent at 30° C. using a spectrophotometer having thermal-regulated cuvette holder. The assay is initiated by addition and mixing of an appropriate amount of β-lactamase.
(§2) The 100% activity control is performed as described above using 300 μM Chromacef, 3 volume percent DMSO cosolvent in buffer (either 50 mM, pH 7.0 sodium phosphate or 100 mM, pH 7.0 Trisma buffer supplemented with 100 μM ZnCl2) at 30° C. The reaction is initiated by addition and mixing of an appropriate amount of β-lactamase and the formation of product is followed as a function of time by monitoring the increase in absorbance at 442 nm as a function of time. The reaction is followed through <10% completeness and the initial rate determined via linear least squares analysis where the slope is the initial rate.
(§3) Ten-minute inhibition assays are performed as described above using 50-500 μM inhibitor cephalosporin, 0.5-5 volume percent DMSO cosolvent, and the same amount of enzyme as used in the control assay in buffer (either 50 mM, pH 7.0 sodium phosphate or 100 mM, pH 7.0 Trisma buffer supplemented with 100 μM ZnCl2) at 30° C. The reaction is initiated by after 10 minutes points by the addition and mixing of an appropriate amount of Chromacef to give a 300 μM concentration and the formation of product is followed as a function of time by monitoring the increase in absorbance at 442 nm as a function of time. The reaction is followed through <10% completeness and the initial rate determined via linear least squares analysis where the slope is the initial rate.

[2] = target: T2, NDM-1 (Klebsiella pneumoniae, UniProt C7C422); test: as above; conditions: 10 min preincubation, 300 μM Chromacef, pH 7.0, 30° C.
T2 construct: made in house
Text: as §1, §2, §3

[3] = target: T3, IMP-1 (Serratia marcescens, UniProt P52699); test: as above; conditions: 10 min preincubation, 300 μM Chromacef, pH 7.0, 30° C.
T3 construct: made in house
Text: as §1, §2, §3

[4] = target: T4, KPC-3 (Klebsiella pneumoniae, UniProt Q9F663, H272Y); test: as above; conditions: 10 min preincubation, 300 μM Chromacef, pH 7.0, 30° C.
T4 construct: made in house
Text: as §1, §2, §3

[5] = target: T2, NDM-1; test: Assay for determining irreversible β-lactamase inhibition (500-fold dilution); conditions: FIG. 2
Procedure: as §2
Inhibition of β-lactamase was performed at a concentration of β-lactamase 500 times greater than used in the control assay, and 50-500 μM cephalosporin inhibitor, buffer (either 50 mM, pH 7.0 sodium phosphate or 100 mM, pH 7.0 Trisma buffer supplemented with 100 μM ZnCl2), 0.5-5 volume percent DMSO cosolvent for various times. Activity assays were performed the same as the control reaction except 2.00 μL of this inhibition solution were substituted for the uninhibited enzyme solution resulting in a 500-fold dilution of inhibitor to eliminate any competitive binding of inhibitor to enzyme.

T2 sequence (C7C422 29-270, looked up, species assumed): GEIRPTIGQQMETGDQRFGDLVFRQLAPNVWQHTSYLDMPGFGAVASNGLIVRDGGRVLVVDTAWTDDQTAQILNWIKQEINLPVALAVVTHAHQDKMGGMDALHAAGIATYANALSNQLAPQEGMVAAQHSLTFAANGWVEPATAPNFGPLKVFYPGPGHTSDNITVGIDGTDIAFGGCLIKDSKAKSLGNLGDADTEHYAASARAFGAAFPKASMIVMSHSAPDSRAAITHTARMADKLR
T3 sequence (P52699 19-246, looked up, species assumed): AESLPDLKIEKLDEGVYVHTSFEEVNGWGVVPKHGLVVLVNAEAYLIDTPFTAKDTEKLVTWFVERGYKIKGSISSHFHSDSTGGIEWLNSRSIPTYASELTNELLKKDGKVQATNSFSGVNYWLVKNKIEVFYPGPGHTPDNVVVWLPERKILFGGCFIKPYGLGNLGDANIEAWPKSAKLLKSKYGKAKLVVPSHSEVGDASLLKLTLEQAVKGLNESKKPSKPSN
T4 sequence (Q9F663 25-293 H272Y): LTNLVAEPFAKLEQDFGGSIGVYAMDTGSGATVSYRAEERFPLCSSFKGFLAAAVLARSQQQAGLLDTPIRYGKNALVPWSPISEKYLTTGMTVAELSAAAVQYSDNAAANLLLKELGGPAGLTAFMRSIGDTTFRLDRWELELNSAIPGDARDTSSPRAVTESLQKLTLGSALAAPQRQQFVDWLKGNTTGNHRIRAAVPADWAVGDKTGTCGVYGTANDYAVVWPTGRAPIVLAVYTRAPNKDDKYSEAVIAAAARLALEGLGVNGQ

**Q.** What does the source list for O=C(Cc1ccccc1)NC1C(=O)N2C(C(=O)O)=C(C=Cc3ccc(CCl)cc3)CS[C@H]12 (some centres unmarked) [II-Cl/benzyl, 3-(4-(chloromethyl)styryl)-7-(2-phenylacetamido)-ceph-3-em-4-carboxylic acid]?
**A.** pIC50 [1]: 4.97; pIC50 [2]: 5.19; pIC50 [3]: 4.21

**Q.** With O=C(Cc1ccccc1)NC1C(=O)N2C(C(=O)O)=C(C=Cc3ccc(CCl)cc3[N+](=O)[O-])CS[C@H]12 (some centres unmarked) [III-Cl/benzyl, 3-(2-nitro-4-(chloromethyl)styryl)-7-(2-phenylacetamido)-ceph-3-em-4-carboxylic acid] as the compound, how does the pIC50 [2] read?
**A.** 6.23

**Q.** And the pIC50 [3]?
**A.** 6.23

**Q.** And the pIC50 [4]?
**A.** 6.01

**Q.** What about the “irreversibility of the inhibition” value ([5]; activity after 500-fold dilution of inhibitor) of the same compound?
**A.** irreversibility of the inhibition

**Q.** What about the “time-dependency of the inhibition” value ([5]; various incubation times) of the same compound?
**A.** time-dependency of the inhibition
